Reference: patent publication US20080221100A1, “SOLUBLE EPOXIDE HYDROLASE INHIBITORS” (Arete Therapeutics, Inc., priority 2006, published 2008)

Experiments:
[1] = system: soluble epoxide hydrolase (sEH); assay: Fluorescent assay for mouse and human soluble epoxide hydrolase (CMNPC substrate); format: biochemical, mouse or human, not specified
Excerpt: Fluorescent Assay for Mouse and Human Soluble Epoxide Hydrolase Recombinant mouse sEH (MsEH) and human sEH (HsEH) were produced in a baculovirus expression system as previously reported. Grant et al., J. Biol. Chem., 268:17628-17633 (1993); Beetham et al., Arch. Biochem. Biophys., 305:197-201 (1993). The expressed proteins were purified from cell lysate by affinity chromatography. Wixtrom et al., Anal. Biochem., 169:71-80 (1988). Protein concentration was quantified using the Pierce BCA assay using bovine serum albumin as the calibrating standard. […] They contained no detectable esterase or glutathione transferase activity which can interfere with the assay. The assay was also evaluated with similar results in crude cell lysates or homogenate of tissues. The IC50s for each inhibitor were determined according to the following procedure: Substrate: [drawing 155] […] Jones P. D. et al.; Analytical Biochemistry 2005; 343: pp. 66-75) Solutions: Bis/Tris HCl 25 mM pH 7.0 containing 0.1 mg/mL of BSA (buffer […] at 0.25 mM in DMSO. Mother solution of enzyme in buffer A (Mouse sEH at 6 μg/mL and Human sEH at 5 μg/mL). Inhibitor dissolved in DMSO at the appropriate concentration. Protocol: In a black 96 well plate, fill all the wells with 150 μL of buffer A. Add 2 μL of DMSO in well A2 and A3, and then add 2 μL of inhibitor solution in A1 and A4 through A12. Add 150 μL of buffer A in row A, then mix several time and transfer 150 μL to row B. Repeat this operation up to row H. The 150 μL removed from row H is discarded. Add 20 μL of buffer A in column 1 and 2, then add 20 μL of enzyme solution to column 3 to 12. Incubate the plate for 5 minutes in the plate reader at 30° C. During incubation prepare the working solution of substrate by mixing 3.68 mL of buffer A (4×0.920 mL) with 266 μL (2×133 μL) of substrate solution). At t=0, add 30 μL of working substrate solution with multi-channel pipette labeled “Briggs 303” and start the reading ([S]final: 5 μM). Read with ex: 330 nm (20 nm) and em: 465 nm (20 nm) every 30 second for 10 minutes. The velocities are used to analyze and calculate the IC50s.

melting point [°C] | % Inhibition ([1]; Conc 200 nM) [%] | % Inhibition ([1]; Conc 2000 nM) [%] | SMILES
229 to 230 | 94 |  | CC(C)(C)[S+]([O-])N1CCC(NC(=O)Nc2ccc(C(F)(F)F)cc2)CC1 (centres unmarked) [Compound 52, 1-(1-(tert-butylsulfinyl)piperidin-4-yl)-3-(4-(trifluoromethyl)phenyl)urea]
175 to 182 | 100 |  | O=C(Nc1ccc(C(F)(F)F)cc1)NC1CCN(C(=O)CCCO)CC1 [Compound 53, 1-(1-(4-hydroxybutanoyl)piperidin-4-yl)-3-(4-(trifluoromethyl)phenyl)urea]
260 to 261 | 97 |  | CC(C)(C)S(=O)(=O)N1CCC(NC(=O)Nc2ccc(C(F)(F)F)cc2)CC1 [Compound 54, 1-(1-(tert-butylsulfonyl)piperidin-4-yl)-3-(4-(trifluoromethyl)phenyl)urea]
234 to 236 |  | 43 | O=C(Nc1ccc(C(F)(F)F)cc1)NC1CCN(C(=O)N2CCOCC2)CC1 [Compound 55, 1-(1-(morpholine-4-carbonyl)piperidin-4-yl)-3-(4-(trifluoromethyl)phenyl)urea]
